Some results are limits rather than exact numbers.

The target in the first experiment is T1, human CTPS1 (Homo sapiens, UniProt P17812).
T1 construct: FLAG (with GG linker); His8 (with GG linker); purchased Proteros biostructures GmbH
T1 sequence (P17812 1-591): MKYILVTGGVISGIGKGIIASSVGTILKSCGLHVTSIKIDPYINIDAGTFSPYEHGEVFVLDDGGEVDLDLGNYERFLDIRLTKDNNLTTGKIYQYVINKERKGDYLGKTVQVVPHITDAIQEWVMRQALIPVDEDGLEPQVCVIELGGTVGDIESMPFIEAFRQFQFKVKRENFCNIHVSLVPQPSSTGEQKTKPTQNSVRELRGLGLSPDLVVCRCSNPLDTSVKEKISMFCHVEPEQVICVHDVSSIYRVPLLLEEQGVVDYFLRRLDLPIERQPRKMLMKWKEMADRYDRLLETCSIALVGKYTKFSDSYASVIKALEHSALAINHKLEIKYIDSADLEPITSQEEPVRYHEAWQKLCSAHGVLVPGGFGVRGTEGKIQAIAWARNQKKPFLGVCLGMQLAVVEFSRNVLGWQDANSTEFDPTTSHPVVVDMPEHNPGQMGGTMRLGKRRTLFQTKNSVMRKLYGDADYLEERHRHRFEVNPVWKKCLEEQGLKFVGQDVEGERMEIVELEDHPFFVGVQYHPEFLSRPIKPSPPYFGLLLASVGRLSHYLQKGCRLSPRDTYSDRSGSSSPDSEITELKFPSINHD
The experiment is described as follows: Human CTPS1 enzyme inhibition, ADP-Glo Max assay. As to conditions: ADP-Glo Max assay; Table 10; read-out: Human CTPS1 Enzyme Inhibition, IC50 grouped by potency range (CTPS1). It is filed as biochemical. The method, boiled down: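 Enzyme preincubated with compound for 10 min at 25 °C in 50 mM Tris pH 8.0, 10 mM MgCl2, 0.01% Tween-20, 2 mM L-cysteine. ATP-to-ADP conversion detected by ADP-Glo Max luminescence after 60 min depletion and 60 min development steps. Percentage inhibition calculated per concentration.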
(In ADP-Glo the light output rises with the ADP produced.)
For the compound `CC(C)(C(=O)Nc1ncc(-c2cnccn2)cc1F)c1csc(NS(=O)(=O)C2CC2)n1` [T110, 2-(2-(cyclopropanesulfonamido)thiazol-4-yl)-N-(3-fluoro-5-(pyrazin-2-yl)pyridin-2-yl)-2-methylpropanamide], the IC50 lay within 100 to 1000 nM.
For `CC(C)(C(=O)Nc1ccc(-c2ccccc2)cn1)c1csc(NS(=O)(=O)C2CC2)n1` [T63, 2-(2-(cyclopropanesulfonamido)thiazol-4-yl)-2-methyl-N-(5-phenylpyridin-2-yl)propanamide], the IC50 was 100 to 1000 nM.
Still for that read-out and setting: the figure for `CC(=O)Nc1cncc(-c2ccc(NC(=O)C(C)(C)c3csc(NS(=O)(=O)C4CC4)n3)cc2)n1` [T281, N-(4-(6-acetamidopyrazin-2-yl)phenyl)-2-(2-(cyclopropanesulfonamido)thiazol-4-yl)-2-methylpropanamide] is 100 to 1000 nM; for `CN(C(=O)Cc1csc(NS(=O)(=O)C2CC2)n1)c1ccc(-c2cccnc2)cc1` [T26, 2-(2-(cyclopropanesulfonamido)thiazol-4-yl)-N-methyl-N-(4-(pyridin-3-yl)phenyl)acetamide] it is 100 to 1000 nM.
Same read-out and setting: the figure for `CN(C(=O)C(C)(C)c1csc(NS(=O)(=O)C2CC2)n1)c1ccc(-c2cncc(C(F)(F)F)n2)cc1` [T310, 2-(2-(cyclopropanesulfonamido)thiazol-4-yl)-N,2-dimethyl-N-(4-(6-(trifluoromethyl)pyrazin-2-yl)phenyl)propanamide] is 1000 to 10000 nM.
As for `O=C(Cc1csc(NS(=O)(=O)C2CC2)n1)Nc1ccc(-c2cccnc2)cc1F` [T216, 2-(2-(cyclopropanesulfonamido)thiazol-4-yl)-N-(2-fluoro-4-(pyridin-3-yl)phenyl)acetamide], the IC50 fell in the range of 100 to 1000 nM.
As to `COc1ncc(-c2ccc(NC(=O)C(C)(C)c3csc(NS(=O)(=O)C4CC4)n3)cc2)cc1C` [T251, 2-(2-(cyclopropanesulfonamido)thiazol-4-yl)-N-(4-(6-methoxy-5-methylpyridin-3-yl)phenyl)-2-methylpropanamide], the IC50 was in the range of 1000 to 10000 nM.
Still for that read-out and setting: the figure for `COc1ncc(-c2ccc(NC(=O)Cc3csc(NS(=O)(=O)C4CC4)n3)cc2)cn1` [T242, 2-(2-(cyclopropanesulfonamido)thiazol-4-yl)-N-(4-(2-methoxypyrimidin-5-yl)phenyl)acetamide] is 1000 to 10000 nM; for `CC(C)(C(=O)Nc1ncc(-c2cncc(Cl)c2)cc1F)c1csc(NS(=O)(=O)C2CC2)n1` [T229, N-(5′-chloro-5-fluoro-[3,3′-bipyridin]-6-yl)-2-(2-(cyclopropanesulfonamido)thiazol-4-yl)-2-methylpropanamide] it is less than 100 nM.
As for `CC(C)(C(=O)Nc1ccc(-c2cccnc2F)cc1)c1csc(NS(=O)(=O)C2CC2)n1` [T240, 2-(2-(cyclopropanesulfonamido)thiazol-4-yl)-N-(4-(2-fluoropyridin-3-yl)phenyl)-2-methylpropanamide], the IC50 was 100 to 1000 nM.
As for `CC(C)(C(=O)Nc1ccc(-c2cncc(C(F)(F)F)n2)cn1)c1csc(NS(C)(=O)=O)n1` [T425, 2-methyl-2-(2-(methylsulfonamido)thiazol-4-yl)-N-(5-(6-(trifluoromethyl)pyrazin-2-yl)pyridin-2-yl)propanamide], the IC50 is less than 100 nM.
For `O=C(Cc1csc(NS(=O)(=O)C2CC2)n1)Nc1ccc(-c2cccnc2)nc1` [T67, N-([2,3′-bipyridin]-5-yl)-2-(2-(cyclopropanesulfonamido)thiazol-4-yl)acetamide], the IC50 lay within 100 to 1000 nM.
With `CC(C)(C(=O)Nc1ccc(-c2cccc(C(F)(F)F)n2)cn1)c1csc(NS(=O)(=O)C2CC2)n1` [T51, 2-(2-(cyclopropanesulfonamido)thiazol-4-yl)-2-methyl-N-(6-(trifluoromethyl)-[2,3′-bipyridin]-6′-yl)propanamide], the IC50 is less than 100 nM.
On the same count and under the same terms, the figure for `CCCOc1cncc(-c2ccc(NC(=O)C(C)(C)c3csc(NS(=O)(=O)C4CC4)n3)cc2)n1` [T55, 2-(2-(cyclopropanesulfonamido)thiazol-4-yl)-2-methyl-N-(4-(6-propoxypyrazin-2-yl)phenyl)propanamide] is less than 100 nM; for `COc1cc(NC(=O)C(C)(C)c2csc(NS(=O)(=O)C3CC3)n2)ccc1-c1cccnc1` [T150, 2-(2-(cyclopropanesulfonamido)thiazol-4-yl)-N-(3-methoxy-4-(pyridin-3-yl)phenyl)-2-methylpropanamide] it is 100 to 1000 nM.
Turning to `CCC(C(=O)Nc1ccc(-c2cncc(F)c2)cc1)c1csc(NS(=O)(=O)C2CC2)n1` (single isomer, unassigned) [T72, 2-(2-(cyclopropanesulfonamido)thiazol-4-yl)-N-(4-(5-fluoropyridin-3-yl)phenyl)butanamide], the IC50 is less than 100 nM.
Take `CC(C)(C(=O)Nc1ccc(-c2cncnc2)nc1)c1csc(NS(=O)(=O)C2CC2)n1` [T117, 2-(2-(cyclopropanesulfonamido)thiazol-4-yl)-2-methyl-N-(6-(pyrimidin-5-yl)pyridin-3-yl)propanamide]: the IC50 was 100 to 1000 nM.
In the case of `CCCOc1cncc(-c2ccc(NC(=O)C(CC)(CC)c3csc(NS(=O)(=O)C4CC4)n3)cc2)n1` [T123, 2-(2-(cyclopropanesulfonamido)thiazol-4-yl)-2-ethyl-N-(4-(6-propoxypyrazin-2-yl)phenyl)butanamide], the IC50 was less than 100 nM.
On the same count and under the same terms, the figure for `Cc1c(Cl)cncc1-c1ccc(NC(=O)C(C)(C)c2csc(NS(=O)(=O)C3CC3)n2)cc1` [T428, N-(4-(5-chloro-4-methylpyridin-3-yl)phenyl)-2-(2-(cyclopropanesulfonamido)thiazol-4-yl)-2-methylpropanamide] is 100 to 1000 nM.
As to `CN(C)c1cncc(-c2ccc(NC(=O)C(C)(C)c3csc(NS(=O)(=O)C4CC4)n3)cc2)c1` [T257, 2-(2-(cyclopropanesulfonamido)thiazol-4-yl)-N-(4-(5-(dimethylamino)pyridin-3-yl)phenyl)-2-methylpropanamide], the IC50 lay in the range of 100 to 1000 nM.
Same read-out and setting: the figure for `Cc1cc(-c2cncc(Cl)c2)cc(C)c1NC(=O)C(C)(C)c1csc(NS(=O)(=O)C2CC2)n1` [T321, N-(4-(5-chloropyridin-3-yl)-2,6-dimethylphenyl)-2-(2-(cyclopropanesulfonamido)thiazol-4-yl)-2-methylpropanamide] is less than 100 nM; for `COc1cc(F)cc(-c2ccc(NC(=O)C(C)(C)c3csc(NS(=O)(=O)C4CC4)n3)nc2)c1` [T233, 2-(2-(cyclopropanesulfonamido)thiazol-4-yl)-N-(5-(3-fluoro-5-methoxyphenyl)pyridin-2-yl)-2-methylpropanamide] it is 1000 to 10000 nM; for `CC(C)(C(=O)Nc1ccc(-c2cnccn2)cc1)c1csc(NS(=O)(=O)C2CC2)n1` [T32, 2-(2-(cyclopropanesulfonamido)thiazol-4-yl)-2-methyl-N-(4-(pyrazin-2-yl)phenyl)propanamide] it is less than 100 nM.
With `CC(C)(C(=O)Nc1ccc(-c2cccnc2)nc1)c1csc(NS(=O)(=O)C2CC2)n1` [T116, N-([2,3′-bipyridin]-5-yl)-2-(2-(cyclopropanesulfonamido)thiazol-4-yl)-2-methylpropanamide], the IC50 was 100 to 1000 nM.
As for `COc1cncc(-c2ccc(NC(=O)C(C)(C)c3csc(NS(=O)(=O)C4CC4)n3)nc2)c1` [T224, 2-(2-(cyclopropanesulfonamido)thiazol-4-yl)-N-(5′-methoxy-[3,3′-bipyridin]-6-yl)-2-methylpropanamide], the IC50 is less than 100 nM.
With `CC(C)(C(=O)Nc1ccc(-c2cnccn2)cn1)c1csc(NS(=O)(=O)C2CC2)n1` [T140, 2-(2-(cyclopropanesulfonamido)thiazol-4-yl)-2-methyl-N-(5-(pyrazin-2-yl)pyridin-2-yl)propanamide], the IC50 was 100 to 1000 nM.
For the compound `Cc1cc(-c2cncc(C#N)c2)cc(C)c1NC(=O)C(C)(C)c1csc(NS(=O)(=O)C2CC2)n1` [T320, N-(4-(5-cyanopyridin-3-yl)-2,6-dimethylphenyl)-2-(2-(cyclopropanesulfonamido)thiazol-4-yl)-2-methylpropanamide], the IC50 is 100 to 1000 nM.
Still for that read-out and setting: the result for `CC(C)(C(=O)Nc1ccc(-c2cncc(C(F)(F)F)n2)cc1)c1csc(NS(=O)(=O)C2CC2)n1` [T267, 2-(2-(cyclopropanesulfonamido)thiazol-4-yl)-2-methyl-N-(4-(6-(trifluoromethyl)pyrazin-2-yl)phenyl)propanamide] reads less than 100 nM; that for `CC(C)(C(=O)Nc1ccc(-c2cncnc2)cn1)c1csc(NS(=O)(=O)C2CC2)n1` [T264, 2-(2-(cyclopropanesulfonamido)thiazol-4-yl)-2-methyl-N-(5-(pyrimidin-5-yl)pyridin-2-yl)propanamide], 100 to 1000 nM.
On the same count and under the same terms, the figure for `CC(C)(C(=O)Nc1ccc(-c2cncc(OCC(F)(F)F)n2)cn1)c1csc(NS(=O)(=O)C2CC2)n1` [T109, 2-(2-(cyclopropanesulfonamido)thiazol-4-yl)-2-methyl-N-(5-(6-(2,2,2-trifluoroethoxy)pyrazin-2-yl)pyridin-2-yl)propanamide] is less than 100 nM.

Staying with this experiment, now noted: Table 12, ADP-Glo Max assay; read-out: CTPS1 (Human CTPS1 Enzyme Inhibition data grouped by potency range).
Take `CCOc1cnc(-c2ccc(NC(CC)c3ccnc(NS(=O)(=O)C4CC4)n3)cc2)cn1` (stereo not shown) [P261]: the IC50 fell in the range of 100 to 1000 nM.

Values taken from patent US20230086703A1, “N-(4-(5-chloropyridin-3-yl)phenyl)-2-(2-(cyclopropanesulfonamido)pyrimidin-4-yl) butanamide derivatives and related compounds as human CTPS1 inhibitors for the treatment of proliferative diseases” (Step Pharma S.A.S., priority 2019, published 2023).
